Here are results for twelve compounds from US20090170886A1 (Pfizer Inc, priority 2005, published 2009).

The assay deals with T1, hAR (human androgen receptor, baculovirus/Sf9 generated extracts) (Homo sapiens, UniProt P10275).
T1 construct: made in house; host or cells: baculovirus/Sf9 insect cells (crude extract)
T1 sequence (P10275 1-920): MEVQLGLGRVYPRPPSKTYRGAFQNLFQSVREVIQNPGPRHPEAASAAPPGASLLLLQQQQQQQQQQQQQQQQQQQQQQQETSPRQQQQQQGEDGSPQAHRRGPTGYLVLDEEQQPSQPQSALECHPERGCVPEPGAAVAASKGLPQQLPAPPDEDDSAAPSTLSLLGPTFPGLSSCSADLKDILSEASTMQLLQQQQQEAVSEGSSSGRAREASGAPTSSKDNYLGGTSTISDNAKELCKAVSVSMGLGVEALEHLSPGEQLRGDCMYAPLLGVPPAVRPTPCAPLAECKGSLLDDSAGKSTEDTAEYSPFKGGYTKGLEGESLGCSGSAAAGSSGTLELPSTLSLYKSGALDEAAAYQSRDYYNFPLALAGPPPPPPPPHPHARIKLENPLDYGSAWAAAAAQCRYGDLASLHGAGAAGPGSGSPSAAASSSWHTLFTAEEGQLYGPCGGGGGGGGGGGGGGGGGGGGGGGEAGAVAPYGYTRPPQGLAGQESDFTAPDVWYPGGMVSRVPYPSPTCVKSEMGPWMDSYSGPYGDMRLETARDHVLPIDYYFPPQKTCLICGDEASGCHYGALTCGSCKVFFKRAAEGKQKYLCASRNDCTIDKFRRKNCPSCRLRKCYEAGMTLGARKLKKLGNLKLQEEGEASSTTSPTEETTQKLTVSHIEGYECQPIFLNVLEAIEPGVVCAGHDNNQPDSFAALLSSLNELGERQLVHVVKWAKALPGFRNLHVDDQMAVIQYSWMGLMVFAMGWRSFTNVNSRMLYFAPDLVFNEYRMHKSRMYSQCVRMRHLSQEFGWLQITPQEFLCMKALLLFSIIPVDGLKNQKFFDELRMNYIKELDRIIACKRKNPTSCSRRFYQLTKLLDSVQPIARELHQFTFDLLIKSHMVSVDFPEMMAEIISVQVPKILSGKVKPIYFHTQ
Kind of assay: AR Binding Assay (competitive binding with 3H-DHT tracer). As to conditions: 1 nM 3H-DHT, one hour at 4° C., mean of multiple tests. The essentials:
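Compounds at decreasing concentrations were incubated with baculovirus/Sf9 hAR extract, hydroxylapatite and 1 nM ^3H-DHT for one hour at 4° C., then washed three times. The value is the compound concentration inhibiting half of maximum ^3H-DHT binding, reported as the mean of multiple tests.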

The mark [1] stands for this setting: hAR extract, read-out: AR Binding IC50.

What is called IC50 is the concentration that inhibits the measured activity by half.

Molecules are shown by their SMILES. Like-named read-outs stand apart in the source and are kept apart here.

Turning to `CC(Oc1ccc(C#N)c(C(F)(F)F)c1)c1ccccc1` (racemic) [Example 1, 4-(1-Phenyl-ethoxy)-2-trifluoromethyl-benzonitrile], where the note is “AR Binding IC50, hAR extract”, the IC50 is 10 nM.

As for `CCCC(Oc1ccc(C#N)c(C(F)(F)F)c1)c1cccc(O)c1` (racemic) [Example 14, 4-[1-(3-Hydroxyphenyl)butoxy]-2-(trifluoromethyl)benzonitrile], the IC50 (AR Binding IC50, hAR extract) stood at 18 nM.

Regarding `CCCC(Oc1ccc(C#N)c(C(F)(F)F)c1)c1cccc(O)c1` (single isomer, unassigned; (+)) [Example 15, (+)4-[1-(3-Hydroxyphenyl)butoxy]-2-(trifluoromethyl)benzonitrile], the IC50 (AR Binding IC50, hAR extract) was found to be 20 nM.

As for `CC(C)CC(Oc1ccc(C#N)c(C(F)(F)F)c1)c1cccc(O)c1` (single isomer, unassigned; (+)) [Example 21, (+)4-[1-(3-Hydroxyphenyl)-3-methylbutoxy]-2-(trifluoromethyl)benzonitrile], the IC50 (AR Binding IC50, hAR extract) was 66 nM.

Take `CC(Oc1ccc(C#N)c(C(F)(F)F)c1)c1cncc(O)c1` (single isomer, unassigned; (+)) [Example 74, (+)4-[1-(5-Hydroxypyridin-3-yl)ethoxy]-2-(trifluoromethyl)benzonitrile]: under setting [1], the IC50 is 35 nM.

`CC(Oc1ccc(C#N)c(C(F)(F)F)c1)c1cccc(O)c1` (single isomer, unassigned; (-)) [Example 9, (−)-4-[1-(3-Hydroxyphenyl)ethoxy]-2-(trifluoromethyl)benzonitrile]: where the note is “AR Binding IC50, hAR extract”, the IC50 stood at 56 nM.

Consider `C=CCC(Oc1ccc(C#N)c(C(F)(F)F)c1)c1cccc(O)c1` (single isomer, unassigned; (-)) [Example 19, (−)4-{[1-(3-Hydroxyphenyl)but-3-enyl]oxy}-2-(trifluoromethyl)benzonitrile], for which the IC50 (AR Binding IC50, hAR extract) was 185 nM.

Regarding `N#Cc1ccc(OCc2cccc(O)c2)cc1C(F)(F)F` [Example 6, 4-[(3-Hydroxybenzyl)oxy]-2-(trifluoromethyl)benzonitrile], the IC50 (AR Binding IC50, hAR extract) is 12 nM.

On to `CCC(Oc1ccc(C#N)c(C(F)(F)F)c1)c1ccccn1` (stereo not drawn) [Example 79, 4-(1-Pyridin^−2-yl-propoxy)-2-trifluoromethyl-benzonitrile], for which, under “AR Binding IC50, hAR extract”, the IC50 was 148 nM.

`COc1cccc(C(C)Oc2ccc(C#N)c(C(F)(F)F)c2)n1` (stereo not drawn) [Example 80, 4-[1-(6-Methoxy-pyridin-2-yl)-ethoxy]-2-trifluoromethyl-benzonitrile]: the 50% inhibitory concentration (IC50) under setting [1] is 120 nM.

With `CC(C)CC(Oc1ccc(C#N)c(C(F)(F)F)c1)c1cccnc1` (stereo not drawn) [Example 88, 4-(3-Methyl-1-pyridin-3-yl-butoxy)-2-trifluoromethyl-benzonitrile], the concentration for half-maximal inhibition (IC50) (AR Binding IC50, hAR extract) was 218 nM.

In the case of `Cc1ccc(C(CC(C)C)Oc2ccc(C#N)c(C(F)(F)F)c2)cn1` (stereo not drawn) [Example 89, 4-[3-Methyl-1-(6-methyl-pyridin-3-yl)-butoxy]-2-trifluoromethyl-benzonitrile], for the setting “AR Binding IC50, hAR extract”, the IC50 turned out to be 137 nM.
